Tests used:
Format in all cases: in vivo
Kochia (Kochia scoparia) [1] = test: Test A preemergence; settings: for Plant response rating, Kochia: 125 g ai/ha, preemergence, 0 to 100 scale (0 no effect, 100 complete control); for Kochia plant response rating (0 to 100 scale, 0 is no effect, 100 is complete control): Preemergence, 500 g ai/ha, visual injury approx. 10 d
Summary of the method: (§1)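 Preemergence soil spray on seeded pots or post-emergence spray on 1–2 leaf plants, in loam–sand blend. Greenhouse ~10 d. Visual rating 0–100 against untreated plants.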

[2] = test system: barnyardgrass (Echinochloa crus-galli); test: Test A preemergence; settings: for Plant response rating, Barnyardgrass: 125 g ai/ha, preemergence, 0 to 100 scale (0 no effect, 100 complete control); for Barnyardgrass plant response rating (0 to 100 scale, 0 is no effect, 100 is complete control): Preemergence, 500 g ai/ha, visual injury approx. 10 d
Summary of the method: as §1

[3] = test system: giant foxtail (Setaria faberii); test: Test A preemergence; settings: for Plant response rating, Foxtail, Giant: 125 g ai/ha, preemergence, 0 to 100 scale (0 no effect, 100 complete control); for Foxtail, Giant plant response rating (0 to 100 scale, 0 is no effect, 100 is complete control): Preemergence, 500 g ai/ha, visual injury approx. 10 d
Summary of the method: as §1

[4] = test system: pigweed (Amaranthus retroflexus); test: Test A preemergence; settings: for Plant response rating, Pigweed: 125 g ai/ha; for Pigweed plant response rating (0 to 100 scale, 0 is no effect, 100 is complete control): 500 g ai/ha, visual injury approx. 10 d
[5] = test system: ragweed (common ragweed, Ambrosia elatior); test: Test A preemergence; settings: for Plant response rating, Ragweed: 125 g ai/ha; for Ragweed plant response rating (0 to 100 scale, 0 is no effect, 100 is complete control): 500 g ai/ha, visual injury approx. 10 d
Summary of the method: as §1

[6] = test system: ryegrass, Italian (Italian ryegrass, Lolium multiflorum); test: Test A preemergence; settings: for Plant response rating, Ryegrass, Italian: 125 g ai/ha; for Ryegrass, Italian plant response rating (0 to 100 scale, 0 is no effect, 100 is complete control): 500 g ai/ha, visual injury approx. 10 d
Summary of the method: as §1

[7] = test system: Galium (catchweed bedstraw, Galium aparine); test: Test A postemergence; settings: for Galium plant response rating: 125 g ai/ha, visual injury rating on 0 to 100 scale (0 no effect, 100 complete control), approx. 10 d; for Plant response rating, Galium: 500 g ai/ha
Summary of the method: as §1

Kochia (Kochia scoparia) [8] = test: Test A postemergence; settings: for Kochia plant response rating: 125 g ai/ha, visual injury rating on 0 to 100 scale (0 no effect, 100 complete control), approx. 10 d; for Plant response rating, Kochia: 500 g ai/ha
Summary of the method: as §1

[9] = test system: barnyardgrass (Echinochloa crus-galli); test: Test A postemergence; settings: postemergence; for Barnyardgrass plant response rating: 125 g ai/ha, visual injury rating on 0 to 100 scale (0 no effect, 100 complete control), approx. 10 d; for Plant response rating, Barnyardgrass: 500 g ai/ha, 0 to 100 scale, 0 no effect, 100 complete control
Summary of the method: as §1

[10] = test system: blackgrass (Alopecurus myosuroides); test: Test A postemergence; settings: postemergence; for Blackgrass plant response rating: 125 g ai/ha, visual injury rating on 0 to 100 scale (0 no effect, 100 complete control), approx. 10 d; for Plant response rating, Blackgrass: 500 g ai/ha, 0 to 100 scale, 0 no effect, 100 complete control
Summary of the method: as §1

corn (Zea mays) = test: Test A postemergence; settings: postemergence; for Corn plant response rating: 125 g ai/ha, visual injury rating on 0 to 100 scale (0 no effect, 100 complete control), approx. 10 d; for Plant response rating, Corn: 500 g ai/ha, 0 to 100 scale, 0 no effect, 100 complete control
Summary of the method: as §1

[11] = test system: giant foxtail (Setaria faberii); test: Test A postemergence; settings: for Foxtail, Giant plant response rating: 125 g ai/ha, visual injury rating on 0 to 100 scale (0 no effect, 100 complete control), approx. 10 d; for Plant response rating, Foxtail, Giant: 500 g ai/ha
Summary of the method: as §1

[12] = test system: pigweed (Amaranthus retroflexus); test: Test A postemergence; settings: for Pigweed plant response rating: 125 g ai/ha, visual injury rating on 0 to 100 scale (0 no effect, 100 complete control), approx. 10 d; for Plant response rating, Pigweed: 500 g ai/ha
Summary of the method: as §1

[13] = test system: ragweed (common ragweed, Ambrosia elatior); test: Test A postemergence; settings: for Ragweed plant response rating: 125 g ai/ha, visual injury rating on 0 to 100 scale (0 no effect, 100 complete control), approx. 10 d; for Plant response rating, Ragweed: 500 g ai/ha
Summary of the method: as §1

[14] = test system: ryegrass, Italian (Italian ryegrass, Lolium multiflorum); test: Test A postemergence; settings: for Ryegrass, Italian plant response rating: 125 g ai/ha, visual injury rating on 0 to 100 scale (0 no effect, 100 complete control), approx. 10 d; for Plant response rating, Ryegrass, Italian: 500 g ai/ha
Summary of the method: as §1

[15] = test system: wheat (Triticum aestivum); test: Test A postemergence; settings: for Wheat plant response rating: 125 g ai/ha, visual injury rating on 0 to 100 scale (0 no effect, 100 complete control), approx. 10 d; for Plant response rating, Wheat: 500 g ai/ha
Summary of the method: as §1

[16] = test system: barnyardgrass (Echinochloa crus-galli); test: Test B flooded paddy test; settings: Flood, 250 g ai/ha; 0 to 100 scale where 0 is no effect and 100 is complete control; 13 to 15 d
Summary of the method: (§2)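 Visual ratings (0 none to 100 complete control) are relative to untreated plants, taken 13–15 d after treatment in a greenhouse. Test material went straight into floodwater standing 3 cm above the soil, kept constant, on plants at the 2-leaf stage.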

[17] = test system: ducksalad (Heteranthera limosa); test: Test B flooded paddy test; settings: Flood, 250 g ai/ha; 0 to 100 scale where 0 is no effect and 100 is complete control; 13 to 15 d
Summary of the method: as §2

rice (Oryra sativa) = test: Test B flooded paddy test; settings: Flood, 250 g ai/ha; 0 to 100 scale where 0 is no effect and 100 is complete control; 13 to 15 d
Summary of the method: as §2

[18] = test system: sedge, umbrella (small-flower umbrella sedge, Cyperus difformis); test: Test B flooded paddy test; settings: Flood, 250 g ai/ha; 0 to 100 scale where 0 is no effect and 100 is complete control; 13 to 15 d
Summary of the method: as §2

[19] = preemergence, 0 to 100 scale (0 no effect, 100 complete control)
[20] = postemergence, 0 to 100 scale, 0 no effect, 100 complete control
[21] = Preemergence, visual injury after approximately 10 d, 0 to 100 scale where 0 is no effect and 100 is complete control
[22] = Postemergence, 0 to 100 scale where 0 is no effect and 100 is complete control

Row | SMILES | Plant response rating, Kochia (Kochia (Kochia scoparia) [1]) | Kochia plant response rating (0 to 100 scale, 0 is no effect, 100 is complete control) (Kochia (Kochia scoparia) [1]) | Plant response rating, Barnyardgrass [2] | Barnyardgrass plant response rating (0 to 100 scale, 0 is no effect, 100 is complete control) [2] | Plant response rating, Foxtail, Giant [3] | Foxtail, Giant plant response rating (0 to 100 scale, 0 is no effect, 100 is complete control) [3] | Pigweed plant response rating (0 to 100 scale, 0 is no effect, 100 is complete control) ([4]; Preemergence) | Ryegrass, Italian plant response rating (0 to 100 scale, 0 is no effect, 100 is complete control) ([6]; Preemergence) | Galium plant response rating ([7]; postemergence) | Kochia plant response rating (Kochia (Kochia scoparia) [8]; postemergence) | Barnyardgrass plant response rating [9] | Plant response rating, Barnyardgrass [9] | Blackgrass plant response rating [10] | Plant response rating, Blackgrass [10] | Corn plant response rating (corn (Zea mays)) | Plant response rating, Corn (corn (Zea mays)) | Foxtail, Giant plant response rating ([11]; postemergence) | Pigweed plant response rating ([12]; postemergence) | Ragweed plant response rating ([13]; postemergence) | Ryegrass, Italian plant response rating ([14]; postemergence) | also measured
1 | O=C(Nc1ccccc1F)C1C(=O)N(c2ccccc2)CC1c1cccc(C(F)(F)F)c1 (centres unmarked) [Compound 456] | 0 | 0 | 0 | 0 | 0 | 0 | 0 | 0 | 0 | 0 | 0 | 0 | 0 | 0 | 0 | 0 | 0 | 0 | 0 | 0 | Plant response rating, Pigweed [4, 19]: 0; Plant response rating, Ragweed [5, 19]: 0; Ragweed plant response rating (0 to 100 scale, 0 is no effect, 100 is complete control) ([5]; Preemergence): 0; Plant response rating, Ryegrass, Italian [6, 19]: 0; Plant response rating, Galium [7, 20]: 0; Plant response rating, Kochia (Kochia (Kochia scoparia) [8]; [20]): 0; Plant response rating, Foxtail, Giant [11, 20]: 0; Plant response rating, Pigweed [12, 20]: 0; Plant response rating, Ragweed [13, 20]: 0; Plant response rating, Ryegrass, Italian [14, 20]: 0; Wheat plant response rating ([15]; postemergence): 0; Plant response rating, Wheat [15, 20]: 0; Plant response rating, Barnyardgrass [16]: 0; Plant response rating, Ducksalad [17]: 0; Plant response rating, Rice (rice (Oryra sativa)): 0; Plant response rating, Sedge, Umbrella [18]: 0
2 | CC(C)c1ccc(C2CNC(=O)C2C(=O)Nc2ccccc2F)cc1 (centres unmarked) [Compound 469] | 0 | 0 | 80 | 90 | 80 | 90 | 0 | 0 | 0 | 0 | 70 | 80 | 0 | 40 | 0 | 0 | 20 | 0 | 0 | 0 | Plant response rating, Pigweed [4, 21]: 0; Plant response rating, Ragweed [5, 21]: 0; Ragweed plant response rating (0 to 100 scale, 0 is no effect, 100 is complete control) ([5]; Preemergence): 0; Plant response rating, Ryegrass, Italian [6, 21]: 0; Plant response rating, Galium [7, 22]: 0; Plant response rating, Kochia (Kochia (Kochia scoparia) [8]; [22]): 0; Plant response rating, Foxtail, Giant [11, 22]: 60; Plant response rating, Pigweed [12, 22]: 0; Plant response rating, Ragweed [13, 22]: 0; Plant response rating, Ryegrass, Italian [14, 22]: 20; Wheat plant response rating ([15]; postemergence): 0; Plant response rating, Wheat [15, 22]: 0; Plant response rating, Barnyardgrass [16]: 40; Plant response rating, Ducksalad [17]: 70; Plant response rating, Rice (rice (Oryra sativa)): 0; Plant response rating, Sedge, Umbrella [18]: 0
3 | CC(C)c1ccc(C2CNC(=O)C2C(=O)Nc2cccc(F)c2F)cc1 (centres unmarked) [Compound 470] | 70 | 40 | 90 | 90 | 90 | 90 | 20 | 30 | 0 | 0 | 60 | 70 | 30 | 50 | 0 | 0 | 40 | 0 | 0 | 0 | Plant response rating, Pigweed [4, 21]: 0; Plant response rating, Ragweed [5, 21]: 0; Plant response rating, Ryegrass, Italian [6, 21]: 0; Plant response rating, Galium [7, 22]: 0; Plant response rating, Kochia (Kochia (Kochia scoparia) [8]; [22]): 0; Plant response rating, Foxtail, Giant [11, 22]: 80; Plant response rating, Pigweed [12, 22]: 0; Plant response rating, Ragweed [13, 22]: 0; Plant response rating, Ryegrass, Italian [14, 22]: 20; Wheat plant response rating ([15]; postemergence): 0; Plant response rating, Wheat [15, 22]: 0; Plant response rating, Barnyardgrass [16]: 0; Plant response rating, Ducksalad [17]: 85; Plant response rating, Rice (rice (Oryra sativa)): 0; Plant response rating, Sedge, Umbrella [18]: 0
4 | CN1CC(c2ccc(C(F)(F)F)cc2F)C(C(=O)Nc2cccc(F)c2F)C1=O (centres unmarked) [Compound 472] | 80 | 80 | 90 | 90 | 90 | 90 | 90 | 80 | 50 | 60 | 90 | 90 | 30 | 60 | 40 | 80 | 80 | 60 | 0 | 40 | Plant response rating, Pigweed [4, 21]: 80; Plant response rating, Ragweed [5, 21]: 0; Ragweed plant response rating (0 to 100 scale, 0 is no effect, 100 is complete control) ([5]; Preemergence): 50; Plant response rating, Ryegrass, Italian [6, 21]: 50; Plant response rating, Galium [7, 22]: 50; Plant response rating, Kochia (Kochia (Kochia scoparia) [8]; [22]): 70; Plant response rating, Foxtail, Giant [11, 22]: 90; Plant response rating, Pigweed [12, 22]: 60; Plant response rating, Ragweed [13, 22]: 0; Plant response rating, Ryegrass, Italian [14, 22]: 60; Wheat plant response rating ([15]; postemergence): 30; Plant response rating, Wheat [15, 22]: 60; Plant response rating, Barnyardgrass [16]: 60; Plant response rating, Ducksalad [17]: 75; Plant response rating, Rice (rice (Oryra sativa)): 20; Plant response rating, Sedge, Umbrella [18]: 0
5 | CN1CC(c2ccc(C(F)(F)F)cc2F)C(C(=O)Nc2ccccc2F)C1=O (centres unmarked) [Compound 476] | 50 | 70 | 90 | 90 | 90 | 100 | 80 | 40 | 30 | 30 | 90 | 90 | 20 | 50 | 0 | 30 | 80 | 20 | 0 | 30 | Plant response rating, Pigweed [4, 21]: 30; Plant response rating, Ragweed [5, 21]: 0; Ragweed plant response rating (0 to 100 scale, 0 is no effect, 100 is complete control) ([5]; Preemergence): 60; Plant response rating, Ryegrass, Italian [6, 21]: 0; Plant response rating, Galium [7, 22]: 60; Plant response rating, Kochia (Kochia (Kochia scoparia) [8]; [22]): 60; Plant response rating, Foxtail, Giant [11, 22]: 80; Plant response rating, Pigweed [12, 22]: 40; Plant response rating, Ragweed [13, 22]: 0; Plant response rating, Ryegrass, Italian [14, 22]: 40; Wheat plant response rating ([15]; postemergence): 0; Plant response rating, Wheat [15, 22]: 30; Plant response rating, Barnyardgrass [16]: 0; Plant response rating, Ducksalad [17]: 80; Plant response rating, Rice (rice (Oryra sativa)): 0; Plant response rating, Sedge, Umbrella [18]: 0
